One assay addresses T1, delF508-CFTR (Homo sapiens, UniProt P13569, DEL508-508).
T1 construct: functional activity of the CFTR channel (Chloride ion transport) in patient derived primary human bronchial epithelial cells; host or cells: patient-derived primary human bronchial epithelial cells (HBECs), delF508-CFTR
The assay is described as follows: delF508-CFTR functional activity in primary human bronchial epithelial cells (HBECs), Multi-Transepithelial Clamp Circuit (MTECC-24) assay, equivalent short circuit current. Type of assay: cell-based. The following applies: primary CF HBECs; for MTECC24 CFHBEC-Amax %: relative to reference combination 2 μM 3-(6-(1-(2,2-difluorobenzo[d][1,3]dioxol-5-yl)cyclopropane-1-carboxamido)-3-methylpyridin-2-yl)benzoic acid (24 h) + 0.5 μM N-(2,4-di-tert-butyl-5-hydroxyphenyl)-4-oxo-1,4-dihydroquinoline-3-carboxamide; for EC50: test compound added 24 h before assay, potentiator (S)-3-amino-6-methoxy-N-(3,3,3-trifluoro-2-hydroxy-2-methylpropyl)-5-(trifluoromethyl)picolinamide present at assay, mean of at least two replicates, read-out: MTECC24 CFHBEC-EC50. An excerpt:
Measurement of delF508-CFTR Functional Activity in Primary Human Bronchial Epithelial Cells (HBECs) Using Multi-Transepithelial Clamp Circuit (MTECC-24) Assay
This assay measures the functional activity of the CFTR channel (Chloride ion transport) in patient derived primary human bronchial epithelial cells with forskolin activation and in the presence of the CFTR corrector wherein the corrector is a compound of the invention and the potentiator is (S)-3-amino-6-methoxy-N-(3,3,3-trifluoro-2-hydroxy-2-methylpropyl)-5-(trifluoromethyl)picolinamide.
Primary human delF508-CFTR bronchial epithelial cells were purchased from Asterand and cultured according to previously established methods (Fulcher et al. (2005) Methods Mol Med 107: 183-206). Briefly, vendor supplied cells were rapidly defrosted and added to a T175 flask in 50 mL growth media (Lonza BEBM media with Lonza BEGM singlequots). Media was replaced after 24 h and then cells were fed every other day until cells were 80-90% confluent, at which point cells were cryopreserved. These P1 vials were thawed at 37° C. as needed and added to T175 flasks in 50 mL growth media at 5×10^5 cells/flask. Media was replaced after 24 h, and then cells were fed every other day until 80-90% confluent. Cells were lifted with 5 mL Accutase at 37° C. for 5 minutes, centrifuged at 1000 rpms for 5 min (300 g), and resuspended in differentiation media (50% BEBM in DMEM, BEGM singlequots, all trans retinoic acid (5×10·8M)). Cells were then counted and cell suspension was added to collagen coated inserts at 3×10^4 cells/insert in 0.15 mL with 0.5 mL differentiation media on the basolateral side.
Apical and basolateral media were replaced on alternate days, and following day 7 (or when confluent plus 2 days), air liquid interface was established for approximately two weeks by removal of apical media. One day prior to use on the MTECC24 system (EP-Devices, EP Design, Belgium), 0.15 mL of warmed (37° C.) PBS was added to the apical surface of the cultures and returned to humidifier (37° C., 5% CO2 incubator) for 30 min before aspirating the apical surface to remove any mucus.
Compound treatments were then prepared. Compound dilutions, typically a 10 point concentration response with 1 in 3 dilution steps, were made in 100% DMSO before dilution 1 in 1000 into differentiation medium with a final DMSO concentration of 0.1% or 0.2% for the study. Compound containing medium was then transferred into the wells of a 24 well plate at 0.5 mL per well and warmed for 30 min in a 37° C. incubator prior to transferring washed inserts into the compound containing plates. Cells were incubated in compound containing medium (basolateral only) for 24 h prior to measurement in the MTECC24 system.
Following 24 hr treatment, compound dilutions were prepared again, diluted 1 in 1000 into 37° C. assay medium (F-12 Coon's modified, 20 mM HEPES pH7.4 with TRIS Base, No FCS or bicarbonate). Cells which were treated for 24 h with test compound were then transferred into plates containing 0.75 mL compound treatment in assay medium (basolateral) and 0.25 mL of the compound containing assay medium was added to the apical surface. The plates were then transferred to the heated plate compartments of the MTECC24 system for 45 min prior to measurements (this can also be done in a non-CO2 37° C. humidified incubator). Basolateral temperature should not exceed 36.5° C. and apical temperature should be approximately 35.5° C.
Modulators were added sequentially as follows while the MTECC24 instrument recorded the equivalent short circuit current (Ieq)
Prior to dilution into F-12 medium the stocks are as follows: Amiloride stock is 10 mM in H2O
Forskolin Stock is 10 mM in 100% DMSO
(S)-3-amino-6-methoxy-N-(3,3,3-trifluoro-2-hydroxy-2-methylpropyl)-5-(trifluoromethyl)picolinamide is 0.5 mM stock in 100% DMSO INH-172 (4-[[4-Oxo-2-thioxo-3-[3-trifluoromethyl)phenyl]-5-thiazolidinylidene]methyl]benzoic acid) stock is 30 mM in 100% DMSO […]

The next assay concerns the target T2, delF508-CFTR-HRP (Homo sapiens, UniProt P13569, DEL508-508).
T2 construct: expressed in transfected cells
Nature of the assay: Measurement of delF508-CFTR-HRP surface expression in CFBE41o- cells (HRP luminescence).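 As to DelF508-CFTR-HRP Amax %: percent efficacy relative to a reference CFTR corrector compound.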 Type of assay: cell-based. The following applies: for Emax: CFBE41o-, read-out: DelF508-CFTR-HRP Amax %; for EC50: mean of at least two replicates. In a few lines: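 EC50 derived by logistic regression of triplicate surface-HRP luminescence, plate-normalized to the lowest-concentration median. Doxycycline (500 ng/mL, 48 h) induced delF508-CFTR-HRP in CFBE41o- cells; compounds then applied 24 h at 37° C, 10 μM top, 3-fold over 10 points.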

T2 sequence (P13569 with tags, fused parts or gaps DEL508-508): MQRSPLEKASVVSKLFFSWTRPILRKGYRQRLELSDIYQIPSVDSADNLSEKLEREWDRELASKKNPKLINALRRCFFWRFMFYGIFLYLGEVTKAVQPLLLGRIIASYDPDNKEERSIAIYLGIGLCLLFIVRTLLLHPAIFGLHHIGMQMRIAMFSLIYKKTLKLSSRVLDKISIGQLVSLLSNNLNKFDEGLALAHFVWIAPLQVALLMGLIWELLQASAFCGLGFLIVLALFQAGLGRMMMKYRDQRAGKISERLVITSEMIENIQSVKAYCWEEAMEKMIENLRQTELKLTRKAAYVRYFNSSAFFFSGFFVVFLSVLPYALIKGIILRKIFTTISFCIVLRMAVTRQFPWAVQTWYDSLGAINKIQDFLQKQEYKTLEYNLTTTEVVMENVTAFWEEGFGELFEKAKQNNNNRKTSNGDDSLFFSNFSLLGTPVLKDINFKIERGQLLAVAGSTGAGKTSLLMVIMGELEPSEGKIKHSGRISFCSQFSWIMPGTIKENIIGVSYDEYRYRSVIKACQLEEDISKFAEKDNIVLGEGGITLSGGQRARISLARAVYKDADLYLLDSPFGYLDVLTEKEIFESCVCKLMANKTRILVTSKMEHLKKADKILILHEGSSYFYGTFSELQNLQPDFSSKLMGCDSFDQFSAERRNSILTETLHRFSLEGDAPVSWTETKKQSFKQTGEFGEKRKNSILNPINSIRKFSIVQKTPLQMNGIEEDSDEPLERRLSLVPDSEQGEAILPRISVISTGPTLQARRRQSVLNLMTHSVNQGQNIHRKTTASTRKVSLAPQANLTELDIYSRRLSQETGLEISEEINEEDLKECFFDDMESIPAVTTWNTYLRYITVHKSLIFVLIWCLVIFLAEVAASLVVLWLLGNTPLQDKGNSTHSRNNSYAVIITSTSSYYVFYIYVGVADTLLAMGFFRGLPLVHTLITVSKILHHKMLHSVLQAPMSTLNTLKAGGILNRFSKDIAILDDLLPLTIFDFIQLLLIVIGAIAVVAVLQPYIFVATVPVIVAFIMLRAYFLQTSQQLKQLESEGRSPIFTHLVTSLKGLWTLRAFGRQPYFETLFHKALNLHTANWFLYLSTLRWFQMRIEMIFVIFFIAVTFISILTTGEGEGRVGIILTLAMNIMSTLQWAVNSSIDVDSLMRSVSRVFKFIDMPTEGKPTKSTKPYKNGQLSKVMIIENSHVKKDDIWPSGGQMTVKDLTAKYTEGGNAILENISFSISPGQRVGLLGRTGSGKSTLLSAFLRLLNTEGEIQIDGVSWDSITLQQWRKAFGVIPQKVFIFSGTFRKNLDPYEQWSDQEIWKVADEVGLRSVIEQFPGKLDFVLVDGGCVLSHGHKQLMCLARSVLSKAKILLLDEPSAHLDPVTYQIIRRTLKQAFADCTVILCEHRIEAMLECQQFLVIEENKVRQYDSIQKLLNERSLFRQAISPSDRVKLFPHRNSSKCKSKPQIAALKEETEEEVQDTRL
T1 sequence (P13569 with tags, fused parts or gaps DEL508-508): as above

Usually EC50 stands for the concentration that produces a half-maximal response. Regarding `Cc1ccc(C2CCCCC2)c(OC2(C(=O)NS(=O)(=O)c3cccc(N4CC(C)(NC(=O)OC(C)(C)C)C4)n3)CC2)c1` [Example 2-50, Tert-butyl (1-(6-(N-(1-(2-cyclohexyl-5-methylphenoxy)cyclopropane-1-carbonyl)sulfamoyl)pyridin-2-yl)-3-methylazetidin-3-yl)carbamate], on delF508-CFTR, the “MTECC24 CFHBEC-Amax %” value was determined as 93% and the EC50 turned out to be 0.004 µM. Further, on delF508-CFTR-HRP, the Emax was 628% and it took 1.27 µM to reach a half-maximal effect (EC50).

On to `Cc1ccc(C)c(OC2(C(=O)NS(=O)(=O)c3cccc(N4CCOC[C@@H]4C)n3)CC2)c1` [Example 4-2, (S)-1-(2,5-Dimethylphenoxy)-N-((6-(3-methylmorpholino)pyridin-2-yl)sulfonyl)cyclopropane-1-carboxamide], for which, on delF508-CFTR, the “MTECC24 CFHBEC-Amax %” value came to 34% and the EC50 came out at 0.568 µM. Moreover, on delF508-CFTR-HRP, the Emax amounted to 134% and the EC50 worked out at 4.67 µM.

As to `O=C(NS(=O)(=O)c1cccc(N2CC[C@H](O)C2)n1)C1(Oc2cc(Cl)ccc2N2CCC3(CCC3)CC2)CC1` [Example 9-12, (S)-1-(5-Chloro-2-(7-azaspiro[3.5]nonan-7-yl)phenoxy)-N-((6-(3-hydroxypyrrolidin-1-yl)pyridin-2-yl)sulfonyl)cyclopropanecarboxamide], on delF508-CFTR, the “MTECC24 CFHBEC-Amax %” value was 160.7% and the EC50 was 0.776 µM. In addition, at delF508-CFTR-HRP, the Emax came out at 579% and a half-maximal effect (EC50) was put at 1.33 µM.

For the compound `C[C@]1(O)CCN(c2cccc(S(=O)(=O)NC(=O)C3(Oc4cc(Cl)ccc4N4CC5(CCCCC5)C4)CC3)n2)C1` [Example 9-7, (S)-1-(5-Chloro-2-(2-azaspiro[3.5]nonan-2-yl)phenoxy)-N-((6-(3-hydroxy-3-methylpyrrolidin-1-yl)pyridin-2-yl)sulfonyl)cyclopropanecarboxamide], on delF508-CFTR, the “MTECC24 CFHBEC-Amax %” value was 131.1% and the EC50 came out at 0.123 µM. Also, at delF508-CFTR-HRP, the Emax stood at 472% and the concentration for a half-maximal effect (EC50) is 0.58 µM.

On to `Cc1ccc(-c2cccc(C(F)(F)F)c2)c(OC2(C(=O)NS(=O)(=O)c3cccc(N4CC[C@@H](O)C4)n3)CC2)c1` [Example 5-11, (R)—N-((6-(3-Hydroxypyrrolidin-1-yl)pyridin-2-yl)sulfonyl)-1-((4-methyl-3′-(trifluoromethyl)-[1,1′-biphenyl]-2-yl)oxy)cyclopropane-1-carboxamide], for which, on delF508-CFTR, the “MTECC24 CFHBEC-Amax %” value came to 68% and the EC50 worked out at 0.02 µM. Moreover, at delF508-CFTR-HRP, the Emax turned out to be 371% and the EC50 is 2.18 µM.

For `Cc1ccc(C2CCC(F)(F)CC2)c(OC2(C(=O)NS(=O)(=O)c3cccc(N4CCCC(CO)C4)n3)CC2)c1` (single isomer, unassigned) [Example 3-3-2, 1-(2-(4,4-Difluorocyclohexyl)-5-methylphenoxy)-N-((6-(3-(hydroxymethyl)piperidin-1-yl)pyridin-2-yl)sulfonyl)cyclopropane-1-carboxamide], on delF508-CFTR, the “MTECC24 CFHBEC-Amax %” value amounted to 78% and the EC50 turned out to be 0.01 µM. Further, at delF508-CFTR-HRP, the “DelF508-CFTR-HRP Amax %” value amounted to 614% and a half-maximal response (EC50) required 2.76 µM.

As to `CC1(C)CCN(c2ccc(Cl)cc2OC2(C(=O)NS(=O)(=O)c3cccc(N4CC[C@H](O)C4)n3)CC2)CC1` [Example 8-1, (S)-1-(5-Chloro-2-(4,4-dimethylpiperidin-1-yl)phenoxy)-N-((6-(3-hydroxypyrrolidin-1-yl)pyridin-2-yl)sulfonyl)cyclopropane-1-carboxamide], at delF508-CFTR, the “MTECC24 CFHBEC-Amax %” value worked out at 197.2% and the EC50 was 0.373 µM. Further, at delF508-CFTR-HRP, the EC50 was determined as 1.74 µM.

`Cc1ccc(C2CCCCC2)c(OC2(C(=O)NS(=O)(=O)c3cccc(N4CCC(C)(C(=O)O)CC4)n3)CC2)c1` [Example 2-5, 1-(6-(N-(1-(2-cyclohexyl-5-methylphenoxy)cyclopropanecarbonyl)sulfamoyl)pyridin-2-yl)-4-methylpiperidine-4-carboxylic acid]: on delF508-CFTR, the “MTECC24 CFHBEC-Amax %” value was 66% and the EC50 is 0.007 µM. In addition, on delF508-CFTR-HRP, the Emax worked out at 213% and the response was half-maximal at 3.02 µM (EC50).
